Converted amounts (≈) assume the structure as drawn.
Key:
Experiment in all cases: in vitro antibacterial activity (MIC), agar dilution
Format in all cases: cell-based
[1] = system: Streptococcus pyogenes 930; conditions: organism code MM; BHI agar, 35-37° C., 20 to 24 hours; unit assumed
How it was run: (§1)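 Steps: dilute compound serially into BHI agar (twelve plates); spot inocula diluted 1:100, or 1:10 for slow-growing Streptococcus; incubate; inspect visually. MIC recorded as lowest level with no growth, slight haze or sparse isolated colonies.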

[2] = system: Staphylococcus aureus NCTC10649M; conditions: organism code EE; BHI agar, 35-37° C., 20 to 24 hours; unit assumed
How it was run: as §1

Candida albicans CCH 442 = conditions: organism code TT; BHI agar, 35-37° C., 20 to 24 hours; unit assumed
How it was run: as §1

[3] = system: Streptococcus bovis A-5169; conditions: organism code JJ; BHI agar, 35-37° C., 20 to 24 hours; unit assumed
How it was run: as §1

[4] = system: Mycobacterium smegmatis ATCC 114; conditions: organism code UU; BHI agar, 35-37° C., 20 to 24 hours; unit assumed
How it was run: as §1

[5] = system: Staphylococcus aureus CMX 553; conditions: organism code FF; BHI agar, 35-37° C., 20 to 24 hours; unit assumed
How it was run: as §1

[6] = system: Streptococcus Pneumonia 5979; conditions: organism code ZZ; BHI agar, 35-37° C., 20 to 24 hours; unit assumed
How it was run: as §1

[7] = system: Staphylococcus epidermidis 3519; conditions: organism code HH; BHI agar, 35-37° C., 20 to 24 hours; unit assumed
How it was run: as §1

[8] = system: Staphylococcus aureus A-5278; conditions: organism code CC; BHI agar, 35-37° C., 20 to 24 hours; unit assumed
How it was run: as §1

[9] = system: Haemophilis Influenzae DILL AMP R; conditions: organism code WW; BHI agar, 35-37° C., 20 to 24 hours; unit assumed
How it was run: as §1

Escherichia coli SS = conditions: organism code RR; BHI agar, 35-37° C., 20 to 24 hours; unit assumed
How it was run: as §1

[10] = system: Streptococcus pyogenes PIU 2548; conditions: organism code NN; BHI agar, 35-37° C., 20 to 24 hours; unit assumed
How it was run: as §1

[11] = system: Streptococcus pyogenes EES61; conditions: organism code LL; BHI agar, 35-37° C., 20 to 24 hours; unit assumed
How it was run: as §1

[12] = system: Streptococcus Pneumonia GYR 1171; conditions: organism code YY; BHI agar, 35-37° C., 20 to 24 hours; unit assumed
How it was run: as §1

[13] = system: Staphylococcus aureus A5177; conditions: organism code BB; BHI agar, 35-37° C., 20 to 24 hours; unit assumed
How it was run: as §1

[14] = system: Streptococcus Pneumonia 5649; conditions: organism code ZZA; BHI agar, 35-37° C., 20 to 24 hours; unit assumed
How it was run: as §1

[15] = system: Streptococcus agalactiae CMX 508; conditions: organism code KK; BHI agar, 35-37° C., 20 to 24 hours; unit assumed
How it was run: as §1

[16] = system: Streptococcus Pneumonia ATCC6303; conditions: organism code XX; BHI agar, 35-37° C., 20 to 24 hours; unit assumed
How it was run: as §1

[17] = system: Enterococcus faecium ATCC 8043; conditions: organism code II; BHI agar, 35-37° C., 20 to 24 hours; unit assumed
How it was run: as §1

[18] = system: Staphylococcus aureus ATCC 6538P; conditions: organism code AA; BHI agar, 35-37° C., 20 to 24 hours; unit assumed
How it was run: as §1

[19] = system: Staphylococcus aureus CMX 642A; conditions: organism code DD; BHI agar, 35-37° C., 20 to 24 hours; unit assumed
How it was run: as §1

Escherichia coli JUHL = conditions: organism code QQ; BHI agar, 35-37° C., 20 to 24 hours; unit assumed
How it was run: as §1

[20] = system: Micrococcus luteus ATCC 4698; conditions: organism code PP; BHI agar, 35-37° C., 20 to 24 hours; unit assumed
How it was run: (§2)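 Antibacterial MIC determined by agar dilution in BHI agar with twelve successive concentrations; controls comprised compound-free plates and a same-class reference antibiotic. MIC: lowest concentration giving no growth, slight haze or sparsely isolated colonies.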

[21] = system: Nocardia Asteroides ATCC9970; conditions: organism code VV; BHI agar, 35-37° C., 20 to 24 hours; unit assumed
How it was run: as §1

[22] = system: Staphylococcus aureus 1775; conditions: organism code GG; BHI agar, 35-37° C., 20 to 24 hours; unit assumed
How it was run: as §1

Escherichia coli DC-2 = conditions: organism code SS; BHI agar, 35-37° C., 20 to 24 hours; unit assumed
How it was run: as §1

[23] = system: Micrococcus luteus ATCC 9341; conditions: organism code OO; BHI agar, 35-37° C., 20 to 24 hours; unit assumed
How it was run: as §2

| Structure (SMILES) | MIC [1] | MIC [2] | MIC (Candida albicans CCH 442) | MIC [3] | MIC [4] | MIC [5] | MIC [6] | MIC [7] | MIC [8] | MIC [9] | MIC (Escherichia coli SS) | MIC [10] | MIC [11] | MIC [12] | MIC [13] | MIC [14] | MIC [15] | MIC [16] | MIC [17] | MIC [18] | other results |
| --- | --- | --- | --- | --- | --- | --- | --- | --- | --- | --- | --- | --- | --- | --- | --- | --- | --- | --- | --- | --- | --- |
| CC[C@H]1OC(=O)[C@H](C)C(=O)[C@H](C)[C@@H](O[C@@H]2O[C@H](C)C[C@H](N(C)C)[C@H]2O)[C@](C)(OC/C=C/c2cnc(-c3cccs3)s2)C[C@@H](C)C(=O)[C@H](C)[C@H]2NC(=O)O[C@@]21C [Example 57] | 25 µg/mL (≈ 31.1 µM) | 0.2 µg/mL (≈ 0.249 µM) | > 100 µg/mL | 0.02 µg/mL (≈ 0.0249 µM) | 0.2 µg/mL (≈ 0.249 µM) | 0.1 µg/mL (≈ 0.124 µM) | 0.5 µg/mL (≈ 0.622 µM) | 0.05 µg/mL (≈ 0.0622 µM) | > 100 µg/mL | 4 µg/mL (≈ 4.97 µM) | 0.39 µg/mL (≈ 0.485 µM) | 0.1 µg/mL (≈ 0.124 µM) | 0.01 µg/mL (≈ 0.0124 µM) | ≤ 0.004 µg/mL | 0.05 µg/mL (≈ 0.0622 µM) | 0.25 µg/mL (≈ 0.311 µM) | 0.01 µg/mL (≈ 0.0124 µM) | ≤ 0.004 µg/mL | 0.05 µg/mL (≈ 0.0622 µM) | 0.1 µg/mL (≈ 0.124 µM) | MIC [19]: 0.05 µg/mL (≈ 0.0622 µM); MIC (Escherichia coli JUHL): 100 µg/mL (≈ 124 µM); MIC [20]: 0.05 µg/mL (≈ 0.0622 µM); MIC [21]: 0.05 µg/mL (≈ 0.0622 µM); MIC [22]: 100 µg/mL (≈ 124 µM); MIC (Escherichia coli DC-2): 100 µg/mL (≈ 124 µM); MIC [23]: 0.02 µg/mL (≈ 0.0249 µM) |
| CC[C@H]1OC(=O)[C@H](C)C(=O)[C@H](C)[C@@H](O[C@@H]2O[C@H](C)C[C@H](N(C)C)[C@H]2O)[C@](C)(OCC#Cc2ccc(-c3cc4ccccc4s3)s2)C[C@@H](C)C(=O)[C@H](C)[C@H]2NC(=O)O[C@@]21C [Example 34] | 1.56 µg/mL (≈ 1.83 µM) | 0.2 µg/mL (≈ 0.235 µM) | > 100 µg/mL | 0.02 µg/mL (≈ 0.0235 µM) | 0.39 µg/mL (≈ 0.458 µM) | 0.2 µg/mL (≈ 0.235 µM) | 8 µg/mL (≈ 9.4 µM) | 0.39 µg/mL (≈ 0.458 µM) | 50 µg/mL (≈ 58.7 µM) | 16 µg/mL (≈ 18.8 µM) | 1.56 µg/mL (≈ 1.83 µM) | 0.39 µg/mL (≈ 0.458 µM) | 0.02 µg/mL (≈ 0.0235 µM) | 0.25 µg/mL (≈ 0.294 µM) | 0.2 µg/mL (≈ 0.235 µM) | 2 µg/mL (≈ 2.35 µM) | 0.02 µg/mL (≈ 0.0235 µM) | 0.25 µg/mL (≈ 0.294 µM) | 0.2 µg/mL (≈ 0.235 µM) | 0.39 µg/mL (≈ 0.458 µM) | MIC [19]: 0.39 µg/mL (≈ 0.458 µM); MIC (Escherichia coli JUHL): > 100 µg/mL; MIC [20]: 0.2 µg/mL (≈ 0.235 µM); MIC [21]: 0.39 µg/mL (≈ 0.458 µM); MIC [22]: 12.5 µg/mL (≈ 14.7 µM); MIC (Escherichia coli DC-2): > 100 µg/mL; MIC [23]: 0.02 µg/mL (≈ 0.0235 µM) |
| CC[C@H]1OC(=O)[C@H](C)C(=O)[C@H](C)[C@@H](O[C@@H]2O[C@H](C)C[C@H](N(C)C)[C@H]2O)[C@](C)(OCC#Cc2ccc(-c3cccs3)s2)C[C@@H](C)C(=O)[C@H](C)[C@H]2NC(=O)O[C@@]21C [Example 25] | 1.56 µg/mL (≈ 1.95 µM) | 0.2 µg/mL (≈ 0.25 µM) | 12.5 µg/mL (≈ 15.6 µM) | 0.1 µg/mL (≈ 0.125 µM) | 0.39 µg/mL (≈ 0.487 µM) | 0.1 µg/mL (≈ 0.125 µM) | 0.25 µg/mL (≈ 0.312 µM) | 0.1 µg/mL (≈ 0.125 µM) | 25 µg/mL (≈ 31.2 µM) | 2 µg/mL (≈ 2.5 µM) | 0.2 µg/mL (≈ 0.25 µM) | 0.2 µg/mL (≈ 0.25 µM) | 0.005 µg/mL (≈ 0.00624 µM) | ≤ 0.004 µg/mL | 0.1 µg/mL (≈ 0.125 µM) | 0.125 µg/mL (≈ 0.156 µM) | 0.1 µg/mL (≈ 0.125 µM) | ≤ 0.004 µg/mL | 0.1 µg/mL (≈ 0.125 µM) | 0.2 µg/mL (≈ 0.25 µM) | MIC [19]: 0.2 µg/mL (≈ 0.25 µM); MIC (Escherichia coli JUHL): 100 µg/mL (≈ 125 µM); MIC [20]: 0.2 µg/mL (≈ 0.25 µM); MIC [21]: 0.39 µg/mL (≈ 0.487 µM); MIC [22]: 25 µg/mL (≈ 31.2 µM); MIC (Escherichia coli DC-2): > 100 µg/mL; MIC [23]: 0.05 µg/mL (≈ 0.0624 µM) |
| CC[C@H]1OC(=O)[C@H](C)C(=O)[C@H](C)[C@@H](O[C@@H]2O[C@H](C)C[C@H](N(C)C)[C@H]2O)[C@](C)(OC/C=C/c2ccc3ncc(-c4ccco4)cc3c2)C[C@@H](C)C(=O)[C@H](C)[C@H]2NC(=O)O[C@@]21C [Example 39] | 6.2 µg/mL (≈ 7.45 µM) | 0.2 µg/mL (≈ 0.24 µM) | > 100 µg/mL | 0.01 µg/mL (≈ 0.012 µM) | 0.39 µg/mL (≈ 0.469 µM) | 0.2 µg/mL (≈ 0.24 µM) | 2 µg/mL (≈ 2.4 µM) | 0.2 µg/mL (≈ 0.24 µM) | > 100 µg/mL | 4 µg/mL (≈ 4.81 µM) | 0.78 µg/mL (≈ 0.937 µM) | 0.2 µg/mL (≈ 0.24 µM) | 0.01 µg/mL (≈ 0.012 µM) | 0.03 µg/mL (≈ 0.0361 µM) | 0.2 µg/mL (≈ 0.24 µM) | 0.25 µg/mL (≈ 0.3 µM) | 0.01 µg/mL (≈ 0.012 µM) | 0.06 µg/mL (≈ 0.0721 µM) | 0.1 µg/mL (≈ 0.12 µM) | 0.2 µg/mL (≈ 0.24 µM) | MIC [19]: 0.2 µg/mL (≈ 0.24 µM); MIC (Escherichia coli JUHL): > 100 µg/mL; MIC [20]: 0.2 µg/mL (≈ 0.24 µM); MIC [21]: 0.1 µg/mL (≈ 0.12 µM); MIC [22]: > 100 µg/mL; MIC (Escherichia coli DC-2): > 100 µg/mL; MIC [23]: 0.02 µg/mL (≈ 0.024 µM) |

From US6054435A, “6-O-substituted macrolides having antibacterial activity” (priority 1999, dated 2000)
